Laboratory results published in US20100291605A1, “ASSAYS FOR S-ADENOSYLMETHIONINE-DEPENDENT […]” (WASHINGTON STATE UNIVERSITY RESEARCH FOUNDATION, priority 2006, published 2010).
Where no end group is shown, it is not given here. acyl = not defined here

Experiments:
PRMT1 = PRMT1 (Rattus norvegicus, UniProt Q63009); assay: enzyme-coupled continuous spectrophotometric methyltransferase assay (265 nm); conditions: for Vmax, R3 compared with JMH1: peptide substrates of PRMT1, in words
adenine deaminase = adenine deaminase (Bacillus subtilis, UniProt P39761); format: biochemical; conditions: hypoxanthine 3.5 μM to 142 μM, in the presence of 13.3 μM adenine
Sequence of adenine deaminase (P39761 whole entry): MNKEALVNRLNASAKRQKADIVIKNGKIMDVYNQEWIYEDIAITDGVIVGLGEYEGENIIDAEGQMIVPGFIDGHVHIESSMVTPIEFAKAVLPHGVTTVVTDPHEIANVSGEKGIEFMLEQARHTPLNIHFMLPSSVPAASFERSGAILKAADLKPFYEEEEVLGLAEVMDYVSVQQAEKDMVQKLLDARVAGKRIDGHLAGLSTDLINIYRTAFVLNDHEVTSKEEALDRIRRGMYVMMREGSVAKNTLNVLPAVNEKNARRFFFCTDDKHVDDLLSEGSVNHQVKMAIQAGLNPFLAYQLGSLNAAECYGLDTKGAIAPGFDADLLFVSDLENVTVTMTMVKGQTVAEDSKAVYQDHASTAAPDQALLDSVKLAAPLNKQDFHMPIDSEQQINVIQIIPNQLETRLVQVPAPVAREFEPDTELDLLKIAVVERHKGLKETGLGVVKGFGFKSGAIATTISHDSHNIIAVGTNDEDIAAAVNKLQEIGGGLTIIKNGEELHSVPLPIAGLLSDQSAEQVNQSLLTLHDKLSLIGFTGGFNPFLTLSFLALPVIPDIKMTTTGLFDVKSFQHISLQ

Sequence of PRMT1 (Q63009 whole entry): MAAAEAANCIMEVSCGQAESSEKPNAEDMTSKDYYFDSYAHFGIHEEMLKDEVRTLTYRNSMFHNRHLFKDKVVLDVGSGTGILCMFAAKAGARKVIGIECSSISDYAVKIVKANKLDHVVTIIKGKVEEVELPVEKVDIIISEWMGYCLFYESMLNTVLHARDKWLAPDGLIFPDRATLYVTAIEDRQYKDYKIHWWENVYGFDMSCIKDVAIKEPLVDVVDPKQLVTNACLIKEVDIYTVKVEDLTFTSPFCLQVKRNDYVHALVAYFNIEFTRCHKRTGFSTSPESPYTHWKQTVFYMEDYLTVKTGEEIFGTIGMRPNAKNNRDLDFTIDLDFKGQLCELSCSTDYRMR

acylKGGFGGRGGFGGK (SEQ ID NO:2) (acyl-KGGFGGRGGFGGK; reading uncertain; also: N-terminal acyl group not given here, printed as acylKGGFGGRGGFGGK) [JMH1]
Vmax, R3 compared with JMH1 (PRMT1): similar

O=c1[nH]cnc2nc[nH]c12 [hypoxanthine]
inhibition of adenine deaminase (adenine deaminase): did not inhibit

acylSGRGKGGKGLGKGGAK (SEQ ID NO:1) [H4 peptide]
Vmax (PRMT1; peptide substrate of PRMT1): 5.7 ± 0.2 µM/min

acylGGRGGFGGRGGFGGRGGFG (SEQ ID NO:3) [R3]
rate, continuous spectrophotometric assay (PRMT1; 2 μM PRMT1, 211 μM R3): 5.1±0.2 μM AdoHyc formed/min
Vmax, R3 compared with JMH1 (PRMT1): similar
